# How the values were obtained:
# Details in all cases: 72 h
# [1] = test system: U2OS; assay: relative viability EC50 (midpoint between 100% and the lowest measured viability); higher = less toxic
# [2] = test system: Calu-3; assay: as above
# [3] = test system: HepG2; assay: as above
# [4] = test system: Caco-2; assay: as above
# [5] = test system: Vero E6; assay: as above
# [6] = test system: U2OS; assay: cell viability relative to DMSO; higher = less toxic
# [7] = test system: Calu-3; assay: as above
# [8] = test system: HepG2; assay: as above
# [9] = test system: Caco-2; assay: as above
# [10] = test system: Vero E6; assay: as above
# [11] = test system: U2OS; assay: drug sensitivity score (DSS) for viability; higher = more toxic; extreme values may be limits of the assay
# [12] = test system: Calu-3; assay: as above
# [13] = test system: HepG2; assay: as above
# [14] = test system: Caco-2; assay: as above
# [15] = test system: Vero E6; assay: as above
SMILES,relative viability EC50 [1] [µM],relative viability EC50 [2] [µM],relative viability EC50 [3] [µM],relative viability EC50 [4] [µM],relative viability EC50 [5] [µM],cell viability ([6]; 1 nM) [%],cell viability ([6]; 10 nM) [%],cell viability ([6]; 100 nM) [%],cell viability ([6]; 1000 nM) [%],cell viability ([6]; 10000 nM) [%],cell viability ([7]; 1 nM) [%],cell viability ([7]; 10 nM) [%],cell viability ([7]; 100 nM) [%],cell viability ([7]; 1000 nM) [%],cell viability ([7]; 10000 nM) [%],cell viability ([8]; 1 nM) [%],cell viability ([8]; 10 nM) [%],cell viability ([8]; 100 nM) [%],cell viability ([8]; 1000 nM) [%],cell viability ([8]; 10000 nM) [%],cell viability ([9]; 1 nM) [%],cell viability ([9]; 10 nM) [%],cell viability ([9]; 100 nM) [%],cell viability ([9]; 1000 nM) [%],cell viability ([9]; 10000 nM) [%],cell viability ([10]; 1 nM) [%],cell viability ([10]; 10 nM) [%],cell viability ([10]; 100 nM) [%],cell viability ([10]; 1000 nM) [%],cell viability ([10]; 10000 nM) [%],drug sensitivity score [11],drug sensitivity score [12],drug sensitivity score [13],drug sensitivity score [14],drug sensitivity score [15]
Nc1cc(C(F)(F)F)c(-c2cc(N3CCOCC3)nc(N3CCOCC3)n2)cn1 [buparlisib],1.57,0.434,1.3,0.761,1.22,103,102,104,79.4,15.6,116,97.3,87.7,40.5,18,100,96.6,95.7,67.2,10.5,95.3,99,91.5,53.5,18,101,97,92.9,66.2,17.8,7.9,12.7,9.1,10.3,8.4
CS(=O)(=O)OCCCCOS(C)(=O)=O [busulfan],> 10,> 10,> 10,> 10,> 10,102,95.9,105,98.4,100,101,104,89.7,99.6,106,107,92.9,112,95.8,79.2,109,93.4,92.1,84.1,96.5,94.9,94.8,99.6,86.2,84.5,0,0,1.2,0.2,1.3
C=CCC1(CC(C)C)C(=O)NC(=O)NC1=O [butalbital],> 10,> 10,> 10,> 10,> 10,95.1,97.6,98.8,94.3,112,94.5,96.7,102,103,114,108,99.6,92.5,109,94.8,82.1,114,80.1,105,102,105,106,118,109,89.9,0,0,0,0,0
CCCC[C@H]1OC(=O)c2ccccc21 [butylphthalide],> 10,> 10,> 10,> 10,> 10,102,98.9,102,95,98.7,103,96.8,98.3,95.5,104,104,107,97.2,97.8,94.9,111,95.2,102,88.9,102,103,91,105,106,101,0,0,0,0,0
CC[C@@]1(O)C(=O)OCc2c1cc1n(c2=O)Cc2cc3ccccc3nc2-1 [camptothecin],0.891,0.159,0.027,0.0939,0.324,95.8,101,86.5,52,3.7,97.9,88.4,59.8,40.4,14.2,87.8,63.4,36.7,6,1.4,100,87.6,56.4,9.4,25.5,94.9,96.4,68.7,37.4,4,11.3,17.1,28.8,21.3,15.9
COc1ccc(Nc2nccc(NCCO)n2)cc1 [cardiogenol-C],> 10,> 10,> 10,> 10,> 10,97.7,97.2,102,96.1,98.2,94.4,92.7,92.5,92.5,102,93.4,93.1,93.4,108,102,105,87.7,101,95.8,103,94.4,105,94.8,104,100,0,0,0,0,0
CC(C)(C)NCC(O)COc1cccc2c1CCC(=O)N2 (stereo not given) [carteolol],> 10,> 10,> 10,> 10,> 10,98.5,101,95.9,97.2,93.9,94.8,109,104,92.9,104,101,87.8,100,101,105,100,96.1,95.8,98.1,95.7,96.3,95.9,98.4,99,98.3,0,0,0,0,0
CO/N=C(\C(=O)N[C@@H]1C(=O)N2C(C(=O)[O-])=C(C[N+]3(C)CCCC3)CS[C@H]12)c1csc(N)n1 [cefepime],> 10,> 10,> 10,> 10,> 10,99.2,101,96.6,102,99.4,104,105,113,92.8,102,102,86,121,82.6,102,90.8,96.8,106,102,122,100,101,104,107,99.3,0,0,0,0,0
CO/N=C(\C(=O)N[C@@H]1C(=O)N2C(C(=O)OCOC(=O)C(C)(C)C)=C(C)CS[C@H]12)c1csc(N)n1 [cefetamet-pivoxil],> 10,> 10,> 10,> 10,> 10,102,93.5,99.6,104,99.5,104,93.2,102,114,103,102,113,90.9,97.8,93,108,96.5,105,99.7,97.9,91.5,103,89.5,91.7,108,0,0,0,0,0
CO[C@@]1(NC(=O)CSC[C@@H](N)C(=O)O)C(=O)N2C(C(=O)O)=C(CSc3nnnn3C)CS[C@@H]21 [cefminox],> 10,> 10,> 10,> 10,> 10,96.6,98.8,102,104,101,116,99.8,105,94.5,122,108,116,96.6,98.1,92.1,106,103,91.5,103,98.5,93.7,103,99.3,104,97.8,0,0,0,0,0
CCO/N=C(\C(=O)N[C@@H]1C(=O)N2C(C(=O)[O-])=C(Sc3nc(-c4cc[n+](C)cc4)cs3)CS[C@H]12)c1nsc(NP(=O)(O)O)n1 [ceftaroline-fosamil],> 10,> 10,> 10,> 10,> 10,103,106,99.5,107,102,116,109,98.4,106,98.6,116,95.2,105,101,104,94.2,101,89.4,105,93.2,106,99.6,107,97.9,102,0,0,0,0,0
O=C(O)CCCc1ccc(N(CCCl)CCCl)cc1 [chlorambucil],> 10,> 10,> 10,> 10,> 10,104,99.7,101,97.3,105,93,102,94.5,101,97.6,103,100,104,101,83.9,94.9,90.6,98.2,91.8,90.2,102,102,100,98.2,97.9,0,0,0.3,0,0
CC(C)(Oc1ccc(C2CC2(Cl)Cl)cc1)C(=O)O (stereo not given) [ciprofibrate],> 10,> 10,> 10,> 10,> 10,93.2,98.3,99.6,94.7,91.7,104,98.1,96.5,93.7,95.9,96.3,106,99.2,96.1,100,101,93.5,103,86.7,102,94.1,94.4,93.4,97.2,108,0,0,0,0,0
CC(C)(C)CC(C)(C)c1ccc(O)c(Cc2ccc(Cl)cc2Cl)c1 [clofoctol],> 10,> 10,> 10,> 10,> 10,99.4,103,102,103,96.9,91.2,96.5,92.4,90.9,98.5,109,98,113,96.2,98.5,94.6,102,99.7,99.8,93.8,107,101,102,99.8,102,0,0,0,0,0

# From the supplement of paper PMC13380429
